Results reported in patent US20230312473A1, “PROCESS FOR THE PREPARATION OF BIHETEROARYL COMPOUNDS AND CRYSTAL FORMS THEREOF” (Genentech, Inc., priority 2020, published 2023).
Where two headings read alike, the source gives them in different places.

What was measured:
[1] = Solubility of compound I free base in MIBK; format: physicochemical
Experimental: In one aspect, the dissolution solvent is MIBK. The solubility of compound I free base in MIBK is about 8.2 wt. % at 90° C., about 5.2 wt. % at 80° C., about 4 wt. % at 70° C., about 3 wt. % at 60° C., about 2 wt. % at 50° C., about 1.4 wt. % at 40° C., about 1 wt. % at 30° C., about 0.9 wt. % at 20° C., about 0.6 wt. % at 10° C., about 0.4 wt. % at 0° C., and about 0.2 wt. % at −10° C. In some aspects, a 6.5 wt. % to 7.5 wt. % solution of compound I free base in MIBK is formed at 90° C. Following filtration at about 90° C., the solution may be cooled to about 75° C. following by addition of seed crystals to form a slurry, and optionally held (aged) at that temperature for a period of time, such as from about 0.5 to about 2 hours. The slurry may then be cooled, such as for instance to about −10° C., and aged at that temperature for a period of time, such as from about 2 to about 10 hours. Solid crystallized compound I may be isolated, and washed with chilled MIBK (e.g., at about 0° C. to about 10° C.) and then with chilled alcohol, such as ethanol (e.g., at about 0° C. to about 10° C.). Crystalline compound I may be dried at a temperature of from about 40° C. to about 70° C. (e.g., 60° C.) under vacuum (e.g., about 20 mbar or less) until a constant weight is achieved.

[2] = Solubility of compound 1 in the solvent under evaluation at 22° C. and 65° C. (crystallization study); format: physicochemical
Experimental: Crystalline compound 1 was evaluated. Crystallization study procedures were done based on the solubility of compound 1 in the solvent under evaluation as follows.
The results are presented below in Table 10 where: * refers to compound 1 prepared as described above; and ** refers to compound 1 prepared as described above and further incubated at 100% relative humidity at 22° C. for 17 days.

Nc1ncc(-c2cc(N3C[C@@H]4C[C@H]3CO4)nc(N3CCC(F)(F)C3)n2)cc1OC(F)F [Compound 1, 5-(6-((1S,4S)-2-oxa-5-azabicyclo[2.2.1]heptan-5-yl)-2-(3,3-difluoropyrrolidin-1-yl)pyrimidin-4-yl)-3-(difluoromethoxy)pyridin-2-amine]
solubility in MIBK ([1]; 0° C.): about 0.4 wt. % | solubility in MIBK ([1]; 10° C.): about 0.6 wt. % | solubility in MIBK ([1]; 20° C.): about 0.9 wt. % | solubility in MIBK ([1]; 30° C.): about 1 wt. % | solubility in MIBK ([1]; 40° C.): about 1.4 wt. % | solubility in MIBK ([1]; 50° C.): about 2 wt. % | solubility in MIBK ([1]; 60° C.): about 3 wt. % | solubility in MIBK ([1]; 70° C.): about 4 wt. % | solubility in MIBK ([1]; 80° C.): about 5.2 wt. % | solubility in MIBK ([1]; 90° C.): about 8.2 wt. % | solubility in MIBK ([1]; −10° C.): about 0.2 wt. % | solubility ([2]; 2-methyl THF, 22 °C, organic solvent or mixture, thermodynamic from solid, solvent: 2-methyl THF, read-out: Solubility at 22° C.): < 50 mg/mL | solubility ([2]; 2-methyl THF, 65 °C, organic solvent or mixture, solvent: 2-methyl THF, read-out: Solubility at 65° C.): > 50 mg/mL | solubility ([2]; 5% water in ethanol, 22 °C, organic solvent or mixture, thermodynamic from solid, solvent: 5% water in ethanol, read-out: Solubility at 22° C.): < 50 mg/mL | solubility ([2]; 5% water in ethanol, 65 °C, organic solvent or mixture, solvent: 5% water in ethanol, read-out: Solubility at 65° C.): < 50 mg/mL | solubility ([2]; 5% water in isopropanol, 22 °C, organic solvent or mixture, thermodynamic from solid, solvent: 5% water in isopropanol, read-out: Solubility at 22° C.): < 50 mg/mL | solubility ([2]; 5% water in isopropanol, 65 °C, organic solvent or mixture, solvent: 5% water in isopropanol, read-out: Solubility at 65° C.): < 50 mg/mL | solubility ([2]; 5% water in methanol, 22 °C, organic solvent or mixture, thermodynamic from solid, solvent: 5% water in methanol, read-out: Solubility at 22° C.): < 50 mg/mL | solubility ([2]; 5% water in methanol, 65 °C, organic solvent or mixture, solvent: 5% water in methanol, read-out: Solubility at 65° C.): < 50 mg/mL | solubility ([2]; 5% water in propanol, 22 °C, organic solvent or mixture, thermodynamic from solid, solvent: 5% water in propanol, read-out: Solubility at 22° C.): < 50 mg/mL | solubility ([2]; 5% water in propanol, 65 °C, organic solvent or mixture, solvent: 5% water in propanol, read-out: Solubility at 65° C.): < 50 mg/mL | solubility ([2]; 15% water in THF, 22 °C, organic solvent or mixture, thermodynamic from solid, solvent: 15% water in THF, read-out: Solubility at 22° C.): > 50 mg/mL | solubility ([2]; 15% water in acetone, 22 °C, organic solvent or mixture, thermodynamic from solid, solvent: 15% water in acetone, read-out: Solubility at 22° C.): < 50 mg/mL | solubility ([2]; 15% water in acetone, 65 °C, organic solvent or mixture, thermodynamic from solid, solvent: 15% water in acetone, read-out: Solubility at 65° C.): > 50 mg/mL | solubility ([2]; 15% water in ethanol, 22 °C, organic solvent or mixture, thermodynamic from solid, solvent: 15% water in ethanol, read-out: Solubility at 22° C.): < 50 mg/mL | solubility ([2]; 15% water in ethanol, 65 °C, organic solvent or mixture, thermodynamic from solid, solvent: 15% water in ethanol, read-out: Solubility at 65° C.): < 50 mg/mL | solubility ([2]; 15% water in isopropanol, 22 °C, organic solvent or mixture, thermodynamic from solid, solvent: 15% water in isopropanol, read-out: Solubility at 22° C.): < 50 mg/mL | solubility ([2]; 15% water in isopropanol, 65 °C, organic solvent or mixture, thermodynamic from solid, solvent: 15% water in isopropanol, read-out: Solubility at 65° C.): < 50 mg/mL | solubility ([2]; 15% water in methanol, 22 °C, organic solvent or mixture, thermodynamic from solid, solvent: 15% water in methanol, read-out: Solubility at 22° C.): < 50 mg/mL | solubility ([2]; 15% water in methanol, 65 °C, organic solvent or mixture, solvent: 15% water in methanol, read-out: Solubility at 65° C.): < 50 mg/mL | solubility ([2]; 15% water in propanol, 22 °C, organic solvent or mixture, thermodynamic from solid, solvent: 15% water in propanol, read-out: Solubility at 22° C.): < 50 mg/mL | solubility ([2]; 15% water in propanol, 65 °C, organic solvent or mixture, solvent: 15% water in propanol, read-out: Solubility at 65° C.): < 50 mg/mL | solubility ([2]; 20% water in acetonitrile, 22 °C, organic solvent or mixture, thermodynamic from solid, solvent: 20% water in acetonitrile, read-out: Solubility at 22° C.): < 50 mg/mL | solubility ([2]; 20% water in acetonitrile, 65 °C, organic solvent or mixture, solvent: 20% water in acetonitrile, read-out: Solubility at 65° C.): > 50 mg/mL | solubility ([2]; 50% water in acetonitrile, 22 °C, aqueous with cosolvent or surfactant or cyclodextrin, thermodynamic from solid, solvent: 50% water in acetonitrile, read-out: Solubility at 22° C.): < 50 mg/mL | solubility ([2]; 50% water in acetonitrile, 65 °C, aqueous with cosolvent or surfactant or cyclodextrin, solvent: 50% water in acetonitrile, read-out: Solubility at 65° C.): < 50 mg/mL | solubility ([2]; 50% water in ethanol, 22 °C, aqueous with cosolvent or surfactant or cyclodextrin, thermodynamic from solid, solvent: 50% water in ethanol, read-out: Solubility at 22° C.): < 50 mg/mL | solubility ([2]; 50% water in ethanol, 65 °C, aqueous with cosolvent or surfactant or cyclodextrin, solvent: 50% water in ethanol, read-out: Solubility at 65° C.): < 50 mg/mL | solubility ([2]; 50% water in isopropanol, 22 °C, aqueous with cosolvent or surfactant or cyclodextrin, thermodynamic from solid, solvent: 50% water in isopropanol, read-out: Solubility at 22° C.): < 50 mg/mL | solubility ([2]; 50% water in isopropanol, 65 °C, aqueous with cosolvent or surfactant or cyclodextrin, solvent: 50% water in isopropanol, read-out: Solubility at 65° C.): < 50 mg/mL | solubility ([2]; 50% water in methanol, 22 °C, aqueous with cosolvent or surfactant or cyclodextrin, thermodynamic from solid, solvent: 50% water in methanol, read-out: Solubility at 22° C.): < 50 mg/mL | solubility ([2]; 50% water in methanol, 65 °C, aqueous with cosolvent or surfactant or cyclodextrin, solvent: 50% water in methanol, read-out: Solubility at 65° C.): < 50 mg/mL | solubility ([2]; 50% water in propanol, 22 °C, aqueous with cosolvent or surfactant or cyclodextrin, thermodynamic from solid, solvent: 50% water in propanol, read-out: Solubility at 22° C.): < 50 mg/mL | solubility ([2]; 50% water in propanol, 65 °C, aqueous with cosolvent or surfactant or cyclodextrin, solvent: 50% water in propanol, read-out: Solubility at 65° C.): < 50 mg/mL | solubility ([2]; 80% water in acetonitrile, 22 °C, aqueous with cosolvent or surfactant or cyclodextrin, thermodynamic from solid, solvent: 80% water in acetonitrile, read-out: Solubility at 22° C.): < 50 mg/mL | solubility ([2]; 80% water in acetonitrile, 65 °C, aqueous with cosolvent or surfactant or cyclodextrin, solvent: 80% water in acetonitrile, read-out: Solubility at 65° C.): < 50 mg/mL | solubility ([2]; Acetic acid, 22 °C, organic solvent or mixture, thermodynamic from solid, solvent: Acetic acid, read-out: Solubility at 22° C.): > 100 mg/mL | solubility ([2]; Acetonitrile, 22 °C, organic solvent or mixture, thermodynamic from solid, solvent: Acetonitrile, read-out: Solubility at 22° C.): < 50 mg/mL
